{"source": "patent US7202280B2", "about": "“Methods for the treatment and prevention of pancreatitis and for induction of liver regeneration” (priority 2002, dated 2007)", "test_system": "syngenic and metallothionein-SSAT mice", "test": "Hepatic, pancreatic and renal polyamine concentration in syngenic and metallothionein-SSAT mice after analogue", "assay_type": "in vivo, mouse", "conditions": "24 h", "experimental": "α-methylspermidine, Bis-α-methylspermine and α-methylspermine were administered in saline. […] The data are expressed as means ±S.D. For statistical analysis, the two-tailed Student's t test was used."}
{"smiles": "CC(N)CCNCCCCN", "note": "(stereo not drawn) [α-methylspermidine, 1-methylspermidine]", "values": [{"measurement": "hepatic N^1-Acetyl-spermidine", "setting": "Sg mice, 50 mg/kg", "value": "21.45 pmoles/mg tissue wet weight"}, {"measurement": "hepatic Spermidine", "setting": "Sg mice, 50 mg/kg", "value": "1018.24 pmoles/mg tissue wet weight"}, {"measurement": "hepatic Spermine", "setting": "Sg mice, 50 mg/kg", "value": "864.34 ± 90.79 ^++ pmoles/mg tissue wet weight"}, {"measurement": "hepatic α-Methyl-spermidine", "setting": "Sg mice, 50 mg/kg", "value": "394.01 pmoles/mg tissue wet weight"}, {"measurement": "pancreatic Putrescine", "setting": "Sg mice, 50 mg/kg", "value": "2.82 pmoles/mg tissue wet weight"}, {"measurement": "pancreatic Spermidine", "setting": "Sg mice, 50 mg/kg", "value": "6597.75 ± 1034.98 ^+ pmoles/mg tissue wet weight"}, {"measurement": "pancreatic Spermine", "setting": "Sg mice, 50 mg/kg", "value": "911.15 pmoles/mg tissue wet weight"}, {"measurement": "renal N^1-Acetylspermidine", "setting": "Sg mice, 50 mg/kg", "value": "36.67 pmoles/mg tissue wet weight"}, {"measurement": "renal Putrescine", "setting": "Sg mice, 50 mg/kg", "value": "45.91 pmoles/mg tissue wet weight"}, {"measurement": "renal Spermidine", "setting": "Sg mice, 50 mg/kg", "value": "315.36 ± 46.18 ^+ pmoles/mg tissue wet weight"}, {"measurement": "renal Spermine", "setting": "Sg mice, 50 mg/kg", "value": "856.32 ± 68.27 pmoles/mg tissue wet weight"}, {"measurement": "renal α-Methylspermidine", "setting": "Sg mice, 50 mg/kg", "value": "122.64 pmoles/mg tissue wet weight"}, {"measurement": "hepatic N^1-Acetyl-spermidine", "setting": "Sg mice, 100 mg/kg", "value": "12.90 pmoles/mg tissue wet weight"}, {"measurement": "hepatic Putrescine", "setting": "Sg mice, 100 mg/kg", "value": "15.36 pmoles/mg tissue wet weight"}, {"measurement": "hepatic Spermidine", "setting": "Sg mice, 100 mg/kg", "value": "729.82 pmoles/mg tissue wet weight"}, {"measurement": "hepatic Spermine", "setting": "Sg mice, 100 mg/kg", "value": "892.64 ± 79.24 ^++ pmoles/mg tissue wet weight"}, {"measurement": "hepatic α-Methyl-spermidine", "setting": "Sg mice, 100 mg/kg", "value": "461.44 pmoles/mg tissue wet weight"}, {"measurement": "pancreatic N^1-Acetyl-spermidine", "setting": "Sg mice, 100 mg/kg", "value": "66.33 pmoles/mg tissue wet weight"}, {"measurement": "pancreatic Spermidine", "setting": "Sg mice, 100 mg/kg", "value": "6089.81 ± 1039.94 ^++ pmoles/mg tissue wet weight"}, {"measurement": "pancreatic Spermine", "setting": "Sg mice, 100 mg/kg", "value": "815.33 pmoles/mg tissue wet weight"}, {"measurement": "renal N^1-Acetylspermidine", "setting": "Sg mice, 100 mg/kg", "value": "38.89 pmoles/mg tissue wet weight"}, {"measurement": "renal Putrescine", "setting": "Sg mice, 100 mg/kg", "value": "68.97 pmoles/mg tissue wet weight"}, {"measurement": "renal Spermidine", "setting": "Sg mice, 100 mg/kg", "value": "231.78 ± 25.15 pmoles/mg tissue wet weight"}, {"measurement": "renal Spermine", "setting": "Sg mice, 100 mg/kg", "value": "686.21 ± 75.94 ^+ pmoles/mg tissue wet weight"}, {"measurement": "renal α-Methylspermidine", "setting": "Sg mice, 100 mg/kg", "value": "146.37 pmoles/mg tissue wet weight"}, {"measurement": "hepatic N^1-Acetyl-spermidine", "setting": "Sg mice, 150 mg/kg", "value": "23.35 pmoles/mg tissue wet weight"}, {"measurement": "hepatic Spermidine", "setting": "Sg mice, 150 mg/kg", "value": "723.14 pmoles/mg tissue wet weight"}, {"measurement": "hepatic Spermine", "setting": "Sg mice, 150 mg/kg", "value": "739.53 ± 170.40 ^+ pmoles/mg tissue wet weight"}, {"measurement": "hepatic α-Methyl-spermidine", "setting": "Sg mice, 150 mg/kg", "value": "504.41 pmoles/mg tissue wet weight"}, {"measurement": "pancreatic Putrescine", "setting": "Sg mice, 150 mg/kg", "value": "1.66 pmoles/mg tissue wet weight"}, {"measurement": "pancreatic Spermidine", "setting": "Sg mice, 150 mg/kg", "value": "6345.88 ± 1026.88 ^++ pmoles/mg tissue wet weight"}, {"measurement": "pancreatic Spermine", "setting": "Sg mice, 150 mg/kg", "value": "833.73 pmoles/mg tissue wet weight"}, {"measurement": "renal N^1-Acetylspermidine", "setting": "Sg mice, 150 mg/kg", "value": "24.61 pmoles/mg tissue wet weight"}, {"measurement": "renal Putrescine", "setting": "Sg mice, 150 mg/kg", "value": "65.28 pmoles/mg tissue wet weight"}, {"measurement": "renal Spermidine", "setting": "Sg mice, 150 mg/kg", "value": "240.59 ± 28.71 pmoles/mg tissue wet weight"}, {"measurement": "renal Spermine", "setting": "Sg mice, 150 mg/kg", "value": "635.17 ± 42.35 pmoles/mg tissue wet weight"}, {"measurement": "renal α-Methylspermidine", "setting": "Sg mice, 150 mg/kg", "value": "175.49 pmoles/mg tissue wet weight"}, {"measurement": "hepatic N^1-Acetyl-spermidine", "setting": "Sg mice, 250 mg/kg", "value": "18.97 pmoles/mg tissue wet weight"}, {"measurement": "hepatic Putrescine", "setting": "Sg mice, 250 mg/kg", "value": "21.87 pmoles/mg tissue wet weight"}, {"measurement": "hepatic Spermidine", "setting": "Sg mice, 250 mg/kg", "value": "593.49 pmoles/mg tissue wet weight"}, {"measurement": "hepatic Spermine", "setting": "Sg mice, 250 mg/kg", "value": "854.77 ± 108.73 ^++ pmoles/mg tissue wet weight"}, {"measurement": "hepatic α-Methyl-spermidine", "setting": "Sg mice, 250 mg/kg", "value": "763.57 pmoles/mg tissue wet weight"}, {"measurement": "pancreatic Putrescine", "setting": "Sg mice, 250 mg/kg", "value": "158.82 pmoles/mg tissue wet weight"}, {"measurement": "pancreatic Spermidine", "setting": "Sg mice, 250 mg/kg", "value": "4773.64 ± 838.69 ^++ pmoles/mg tissue wet weight"}, {"measurement": "pancreatic Spermine", "setting": "Sg mice, 250 mg/kg", "value": "762.743 pmoles/mg tissue wet weight"}, {"measurement": "pancreatic α-Methyl-spermidine", "setting": "Sg mice, 250 mg/kg", "value": "1363.02 pmoles/mg tissue wet weight"}, {"measurement": "renal N^1-Acetylspermidine", "setting": "Sg mice, 250 mg/kg", "value": "31.10 pmoles/mg tissue wet weight"}, {"measurement": "renal Putrescine", "setting": "Sg mice, 250 mg/kg", "value": "41.84 pmoles/mg tissue wet weight"}, {"measurement": "renal Spermidine", "setting": "Sg mice, 250 mg/kg", "value": "225.57 ± 29.21 ^+ pmoles/mg tissue wet weight"}, {"measurement": "renal Spermine", "setting": "Sg mice, 250 mg/kg", "value": "518.89 ± 36.68 pmoles/mg tissue wet weight"}, {"measurement": "renal α-Methylspermidine", "setting": "Sg mice, 250 mg/kg", "value": "288.30 pmoles/mg tissue wet weight"}, {"measurement": "hepatic N^1-Acetyl-spermidine", "setting": "Sg mice, 375 mg/kg", "value": "31.64 pmoles/mg tissue wet weight"}, {"measurement": "hepatic Putrescine", "setting": "Sg mice, 375 mg/kg", "value": "29.37 pmoles/mg tissue wet weight"}, {"measurement": "hepatic Spermidine", "setting": "Sg mice, 375 mg/kg", "value": "370.29 pmoles/mg tissue wet weight"}, {"measurement": "hepatic Spermine", "setting": "Sg mice, 375 mg/kg", "value": "644.88 ± 183.36 ^+ pmoles/mg tissue wet weight"}, {"measurement": "hepatic α-Methyl-spermidine", "setting": "Sg mice, 375 mg/kg", "value": "1095.59 pmoles/mg tissue wet weight"}, {"measurement": "pancreatic N^1-Acetyl-spermidine", "setting": "Sg mice, 375 mg/kg", "value": "14.02 pmoles/mg tissue wet weight"}, {"measurement": "pancreatic Putrescine", "setting": "Sg mice, 375 mg/kg", "value": "726.66 pmoles/mg tissue wet weight"}, {"measurement": "pancreatic Spermidine", "setting": "Sg mice, 375 mg/kg", "value": "4073.3 ± 670.46^++ pmoles/mg tissue wet weight"}, {"measurement": "pancreatic Spermine", "setting": "Sg mice, 375 mg/kg", "value": "740.93 pmoles/mg tissue wet weight"}, {"measurement": "pancreatic α-Methyl-spermidine", "setting": "Sg mice, 375 mg/kg", "value": "1319.14 pmoles/mg tissue wet weight"}, {"measurement": "renal N^1-Acetylspermidine", "setting": "Sg mice, 375 mg/kg", "value": "27.40 pmoles/mg tissue wet weight"}, {"measurement": "renal Putrescine", "setting": "Sg mice, 375 mg/kg", "value": "58.59 pmoles/mg tissue wet weight"}, {"measurement": "renal Spermidine", "setting": "Sg mice, 375 mg/kg", "value": "189.46 ± 0.98 pmoles/mg tissue wet weight"}, {"measurement": "renal Spermine", "setting": "Sg mice, 375 mg/kg", "value": "454.49 ± 64.44 ^+ pmoles/mg tissue wet weight"}, {"measurement": "renal α-Methylspermidine", "setting": "Sg mice, 375 mg/kg", "value": "477.31 pmoles/mg tissue wet weight"}, {"measurement": "hepatic N^1-Acetyl-spermidine", "setting": "Sg mice, 500 mg/kg", "value": "133.00 pmoles/mg tissue wet weight"}, {"measurement": "hepatic Putrescine", "setting": "Sg mice, 500 mg/kg", "value": "119.33 pmoles/mg tissue wet weight"}, {"measurement": "hepatic Spermidine", "setting": "Sg mice, 500 mg/kg", "value": "273.13 pmoles/mg tissue wet weight"}, {"measurement": "hepatic Spermine", "setting": "Sg mice, 500 mg/kg", "value": "666.13 ± 188.21 pmoles/mg tissue wet weight"}, {"measurement": "hepatic α-Methyl-spermidine", "setting": "Sg mice, 500 mg/kg", "value": "1801.46 pmoles/mg tissue wet weight"}, {"measurement": "pancreatic N^1-Acetyl-spermidine", "setting": "Sg mice, 500 mg/kg", "value": "10.62 pmoles/mg tissue wet weight"}, {"measurement": "pancreatic Putrescine", "setting": "Sg mice, 500 mg/kg", "value": "812.54 pmoles/mg tissue wet weight"}, {"measurement": "pancreatic Spermidine", "setting": "Sg mice, 500 mg/kg", "value": "3669.36 ± 1235.66 pmoles/mg tissue wet weight"}, {"measurement": "pancreatic Spermine", "setting": "Sg mice, 500 mg/kg", "value": "652.17 pmoles/mg tissue wet weight"}, {"measurement": "pancreatic α-Methyl-spermidine", "setting": "Sg mice, 500 mg/kg", "value": "1273.3 pmoles/mg tissue wet weight"}, {"measurement": "renal N^1-Acetylspermidine", "setting": "Sg mice, 500 mg/kg", "value": "46.34 pmoles/mg tissue wet weight"}, {"measurement": "renal Putrescine", "setting": "Sg mice, 500 mg/kg", "value": "789.63 pmoles/mg tissue wet weight"}, {"measurement": "renal Spermidine", "setting": "Sg mice, 500 mg/kg", "value": "181.32 ± 28.81 pmoles/mg tissue wet weight"}, {"measurement": "renal Spermine", "setting": "Sg mice, 500 mg/kg", "value": "458.07 ± 107.68 pmoles/mg tissue wet weight"}, {"measurement": "renal α-Methylspermidine", "setting": "Sg mice, 500 mg/kg", "value": "1078.16 pmoles/mg tissue wet weight"}, {"measurement": "hepatic N^1-Acetyl-spermidine", "setting": "Tg mice, 50 mg/kg", "value": "245.16 pmoles/mg tissue wet weight"}, {"measurement": "hepatic Putrescine", "setting": "Tg mice, 50 mg/kg", "value": "1055.38 pmoles/mg tissue wet weight"}, {"measurement": "hepatic Spermidine", "setting": "Tg mice, 50 mg/kg", "value": "329.57 pmoles/mg tissue wet weight"}, {"measurement": "hepatic Spermine", "setting": "Tg mice, 50 mg/kg", "value": "103.26 ± 188.21 pmoles/mg tissue wet weight"}, {"measurement": "hepatic α-Methyl-spermidine", "setting": "Tg mice, 50 mg/kg", "value": "582.62 pmoles/mg tissue wet weight"}, {"measurement": "pancreatic N^1-Acetyl-spermidine", "setting": "Tg mice, 50 mg/kg", "value": "204.43 pmoles/mg tissue wet weight"}, {"measurement": "pancreatic Putrescine", "setting": "Tg mice, 50 mg/kg", "value": "4968.25 pmoles/mg tissue wet weight"}, {"measurement": "pancreatic Spermidine", "setting": "Tg mice, 50 mg/kg", "value": "1316.94 ± 248.44 pmoles/mg tissue wet weight"}, {"measurement": "pancreatic Spermine", "setting": "Tg mice, 50 mg/kg", "value": "224.17 pmoles/mg tissue wet weight"}, {"measurement": "pancreatic α-Methyl-spermidine", "setting": "Tg mice, 50 mg/kg", "value": "627.87 pmoles/mg tissue wet weight"}, {"measurement": "renal N^1-Acetylspermidine", "setting": "Tg mice, 50 mg/kg", "value": "49.14 pmoles/mg tissue wet weight"}]}
